Some test systems named below: CCRF-CEM leukemia; HCT-116 colon; OVCAR-4 ovarian; PC-3 prostate; RPMI-8226 leukemia; SF-295 CNS; SK-MEL-2 melanoma; SNB-19 CNS; TK-10 renal; U251 CNS.
What all share (test): growth of human tumour cells (NCI), 48 h

We go through nine compounds from PubChem BioAssay (NCI).

Each structure is given as a SMILES string. Several values for one entry are separate records, joined by “and”; a condition that tells them apart may be missing. Identical values can stand only once.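 48-hour exposure; five concentrations; linearly interpolated endpoints. GI50 is the concentration that inhibits growth by half. The concentration for full growth arrest is given as TGI.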

For the compound `NC(=O)c1cccc(Nc2nccc(Nc3cccc4[nH]ncc34)n2)c1`, the GI50 is 9.14 µM with CCRF-CEM leukemia; 8.58 µM in the test with HCT-116 colon; 13.2 µM in the test on OVCAR-4 ovarian; 8.73 µM with PC-3 prostate; > 25 µM with RPMI-8226 leukemia; 15.4 µM in the test with SF-295 CNS. Besides, the GI50 with SK-MEL-2 melanoma is 7.91 µM; in the test with SNB-19 CNS it was 12.7 µM; in the test with TK-10 renal, 20.5 µM; in the test with U251 CNS, 9.53 µM. Also, the TGI in the test with CCRF-CEM leukemia, in the test with HCT-116 colon, with OVCAR-4 ovarian, with PC-3 prostate, with RPMI-8226 leukemia and in the test on SF-295 CNS was > 25 µM throughout. Besides, the TGI in the test on SK-MEL-2 melanoma is 17.8 µM; in the test on SNB-19 CNS, > 25 µM; in the test with TK-10 renal it was > 25 µM; in the test on U251 CNS, > 25 µM.
For the compound `COc1ccccc1CNCCCN1C(=O)c2ccc3c4c(ccc(c24)C1=O)C(=O)N(CCCCNCCCN)C3=O`, the GI50 in the test on CCRF-CEM leukemia is 0.752 µM; with HCT-116 colon it was 0.648 µM; with OVCAR-4 ovarian, 0.458 µM; with PC-3 prostate, 2.29 µM; with RPMI-8226 leukemia, 1.91 µM; in the test with SF-295 CNS, 3.65 µM. Moreover, the GI50 was 1.09 µM with SK-MEL-2 melanoma, 1.31 µM with SNB-19 CNS, 2.62 µM in the test on TK-10 renal and 0.831 µM in the test on U251 CNS. Also, the TGI with CCRF-CEM leukemia came to 5.17 µM; with HCT-116 colon it was 1.94 µM; with OVCAR-4 ovarian it was 1.24 µM; in the test on PC-3 prostate, 9.82 µM; with RPMI-8226 leukemia it was 10.7 µM; in the test with SF-295 CNS it was 17.4 µM. Besides, the TGI with SK-MEL-2 melanoma was determined as 3.09 µM; in the test with SNB-19 CNS, 2.72 µM; in the test on TK-10 renal, 8.07 µM; in the test with U251 CNS, 2.28 µM.
`COc1ccc2c(c1)CC[C@H](O)/C2=C/c1cc(OC)c(OC)c(OC)c1`: the GI50 in the test with CCRF-CEM leukemia was 0.273 µM; in the test with HCT-116 colon it was 0.104 µM; in the test on OVCAR-4 ovarian, 0.952 µM; in the test on PC-3 prostate it was 0.0855 µM; in the test on RPMI-8226 leukemia, 1.82 µM; in the test with SK-MEL-2 melanoma it was 17.8 µM. Besides, the GI50 was 0.201 µM in the test with SNB-19 CNS, 34.4 µM in the test on TK-10 renal and 0.143 µM in the test on U251 CNS. In addition, the TGI was > 100 µM in the test with CCRF-CEM leukemia; > 100 µM in the test with HCT-116 colon; > 100 µM in the test on OVCAR-4 ovarian; > 100 µM with PC-3 prostate; > 51.3 µM in the test with RPMI-8226 leukemia; > 100 µM with SK-MEL-2 melanoma. For the same compound, the TGI in the test with SNB-19 CNS, with TK-10 renal and in the test on U251 CNS was > 100 µM in each case.
`COC(=O)Cc1ccc(Oc2cnc3cc(F)c(F)cc3n2)cc1`: the GI50 in the test on CCRF-CEM leukemia was 44.2 µM; with HCT-116 colon, 26 µM; in the test with OVCAR-4 ovarian, 58.3 µM; with PC-3 prostate it was 63.7 µM; in the test on RPMI-8226 leukemia, 23.2 µM; in the test on SF-295 CNS it was > 100 µM. The GI50 in the test on SK-MEL-2 melanoma, with SNB-19 CNS, in the test with TK-10 renal and in the test with U251 CNS was > 100 µM each time. For the same compound, the TGI was > 100 µM in the test with CCRF-CEM leukemia; > 100 µM in the test on HCT-116 colon; > 100 µM in the test on OVCAR-4 ovarian; > 100 µM in the test with PC-3 prostate; 81 µM with RPMI-8226 leukemia; > 100 µM with SF-295 CNS. The TGI in the test on SK-MEL-2 melanoma, in the test with SNB-19 CNS, in the test on TK-10 renal and in the test on U251 CNS was > 100 µM each time.
On to `Cc1cc(C)c(NC(=S)NC(=O)c2ccccc2)cc1C`, for which the TGI in the test on CCRF-CEM leukemia, in the test on HCT-116 colon, with OVCAR-4 ovarian, in the test with PC-3 prostate, in the test on RPMI-8226 leukemia and in the test on SF-295 CNS was > 100 µM each time. In addition, the TGI with SK-MEL-2 melanoma, in the test with SNB-19 CNS, with TK-10 renal and with U251 CNS was > 100 µM each time.
As for `COc1cc(-c2nc(-c3nc4ccccc4[nH]3)cc3c2[nH]c2ccccc23)cc(OC)c1OC`, the GI50 is 3.96 µM in the test with CCRF-CEM leukemia; 3.95 µM in the test on HCT-116 colon; 47.4 µM in the test on OVCAR-4 ovarian; 2.64 µM in the test with PC-3 prostate; 2.15 µM in the test on RPMI-8226 leukemia; 3.58 µM in the test on SK-MEL-2 melanoma. Further, the GI50 was 9.45 µM in the test on SNB-19 CNS, 4.71 µM in the test with TK-10 renal and 4.76 µM in the test on U251 CNS. In addition, the TGI is > 100 µM with CCRF-CEM leukemia; > 100 µM with HCT-116 colon; > 100 µM in the test on OVCAR-4 ovarian; > 100 µM in the test with PC-3 prostate; 8.61 µM in the test on RPMI-8226 leukemia; > 100 µM with SK-MEL-2 melanoma. The TGI in the test with SNB-19 CNS, with TK-10 renal and in the test with U251 CNS was > 100 µM in each case.
For the compound `O=c1c(Cl)c(Cl)c(=O)c2sc3cc(Cl)ccc3[nH]c1=2`, the TGI is > 100 µM in the test on HCT-116 colon; 22 µM in the test on OVCAR-4 ovarian; > 100 µM in the test with PC-3 prostate; 17.2 µM in the test on RPMI-8226 leukemia; > 100 µM with SF-295 CNS; > 100 µM with SK-MEL-2 melanoma. The TGI in the test on SNB-19 CNS, in the test on TK-10 renal and in the test with U251 CNS was > 100 µM throughout.
As for `O=C1/C(=C\c2ccccn2)c2ccccc2N1c1c(Cl)cccc1Cl`, the GI50 in the test on CCRF-CEM leukemia is 3.31 µM; in the test with HCT-116 colon, 1.7 µM; in the test with OVCAR-4 ovarian, 3.14 µM; in the test with PC-3 prostate it was 2.79 µM; with RPMI-8226 leukemia, 2.8 µM; in the test with SF-295 CNS, 1.96 µM. Besides, the GI50 with SK-MEL-2 melanoma is 2.53 µM; in the test on SNB-19 CNS it was 2.28 µM; in the test on TK-10 renal, 3.39 µM; with U251 CNS, 1.84 µM. Also, the TGI in the test with CCRF-CEM leukemia was > 100 µM; with HCT-116 colon, 3.32 µM; in the test on OVCAR-4 ovarian, 26.8 µM; in the test with PC-3 prostate, > 26.3 µM; in the test on RPMI-8226 leukemia, > 22.4 µM; in the test with SF-295 CNS it was 5.72 µM. The TGI amounted to 6.32 µM in the test on SK-MEL-2 melanoma, 6.25 µM in the test with SNB-19 CNS, 12.7 µM in the test with TK-10 renal and 3.68 µM in the test with U251 CNS.
Regarding `COc1ccc(-c2c3c(n(C4OC(COC(C)=O)C(OC(C)=O)C(OC(C)=O)C4OC(C)=O)c(=S)c2C#N)CC(C)(C)CC3=O)cc1` (stereo unspecified), the GI50 with CCRF-CEM leukemia was 21.5 µM and 71.7 µM; with HCT-116 colon, 41.8 µM and > 100 µM; in the test with OVCAR-4 ovarian, 45.4 µM and > 100 µM; in the test with SK-MEL-2 melanoma, 26.3 µM and > 100 µM; with TK-10 renal it was 39.5 µM and > 100 µM; in the test on U251 CNS, 34.9 µM and > 100 µM. The TGI is 57.2 µM and > 100 µM with CCRF-CEM leukemia; > 100 µM in the test with HCT-116 colon; > 100 µM with OVCAR-4 ovarian; > 100 µM in the test on PC-3 prostate; 72.1 µM and > 100 µM in the test with RPMI-8226 leukemia; > 100 µM in the test with SF-295 CNS. Further, the TGI is 76.4 µM and > 100 µM in the test with SK-MEL-2 melanoma; > 100 µM with SNB-19 CNS; > 100 µM in the test with TK-10 renal; > 100 µM in the test on U251 CNS.
